Test system: 755483-174-R-J1-PDC complex spheroid growth, percent test/control
Assay: Anticancer human tumor 755483-174-R-J1-PDC patient-derived rhabdomyosarcoma cell line growth inhibition [Asc]
Conditions: for IC50: curve of first compound; for viability, T/C: stronger effect = lower value
Summary of the method: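 Concentration series start at each agent's clinical Cmax, or at 10 microM when none is established, and drop in half-log steps; agents are applied alone or together to complex spheroids built with HUVEC and hMSC.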
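Further: spheroids exposed to compounds for seven days before readout.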

SMILES: CCN1C(C(=O)NC23CCC(C(=O)O)(CC2)CC3)C(c2cccc(Cl)c2F)C2(C(=O)Nc3cc(Cl)ccc32)C12CCCCC2 (stereo not given) + Cc1c(S(C)(=O)=O)c(-c2cc(F)cc(N3CCN(c4ccc(NS(=O)(=O)c5ccc(NC(CCN6CCC(C(=O)OCCCP(=O)(O)O)CC6)CSc6ccccc6)c(S(=O)(=O)C(F)(F)F)c5)cc4)CC3)c2)c(-c2ccc(Cl)cc2)n1C(C)C
- IC50 (second compound 0.1 µM): 1740 nM
- IC50 (second compound 0.316 µM): < 9.49 nM
- IC50 (second compound 1 µM): < 9.49 nM
- IC50 (second compound 3.16 µM): < 9.49 nM
- IC50 (second compound 10 µM): 26.8 nM
- viability, T/C (second compound 0.1 µM, first compound 0.00949 µM): 68.7%
- viability, T/C (second compound 0.1 µM, first compound 0.03 µM): 60.5%
- viability, T/C (second compound 0.1 µM, first compound 0.0949 µM): 57.5%
- viability, T/C (second compound 0.1 µM, first compound 0.3 µM): 61.4%
- viability, T/C (second compound 0.1 µM, first compound 0.949 µM): 65.5%
- viability, T/C (second compound 0.1 µM, first compound 3 µM): 38.7%
- viability, T/C (second compound 0.316 µM, first compound 0.00949 µM): 49%
- viability, T/C (second compound 0.316 µM, first compound 0.03 µM): 33.9%
- viability, T/C (second compound 0.316 µM, first compound 0.0949 µM): 55.8%
- viability, T/C (second compound 0.316 µM, first compound 0.3 µM): 30.4%
- viability, T/C (second compound 0.316 µM, first compound 0.949 µM): 59.7%
- viability, T/C (second compound 0.316 µM, first compound 3 µM): 36.1%
- viability, T/C (second compound 1 µM, first compound 0.00949 µM): 48.3%
- viability, T/C (second compound 1 µM, first compound 0.03 µM): 47%
- viability, T/C (second compound 1 µM, first compound 0.0949 µM): 38.7%
- viability, T/C (second compound 1 µM, first compound 0.3 µM): 45.5%
- viability, T/C (second compound 1 µM, first compound 0.949 µM): 29.2%
- viability, T/C (second compound 1 µM, first compound 3 µM): 40%
- viability, T/C (second compound 3.16 µM, first compound 0.00949 µM): 36.8%
- viability, T/C (second compound 3.16 µM, first compound 0.03 µM): 34.1%
- viability, T/C (second compound 3.16 µM, first compound 0.0949 µM): 34.4%
- viability, T/C (second compound 3.16 µM, first compound 0.3 µM): 46.9%
- viability, T/C (second compound 3.16 µM, first compound 0.949 µM): 37.9%
- viability, T/C (second compound 3.16 µM, first compound 3 µM): 27.5%
- viability, T/C (second compound 10 µM, first compound 0.00949 µM): 40.6%
- viability, T/C (second compound 10 µM, first compound 0.03 µM): 64.6%
- viability, T/C (second compound 10 µM, first compound 0.0949 µM): 52.8%
- viability, T/C (second compound 10 µM, first compound 0.3 µM): 38.5%
- viability, T/C (second compound 10 µM, first compound 0.949 µM): 40.5%
- viability, T/C (second compound 10 µM, first compound 3 µM): 45.9%

SMILES: COc1c(OCCCN2CCOCC2)ccc2c3n(c(=NC(=O)c4cnc(N)nc4)nc12)CCN3 + Cc1c(S(C)(=O)=O)c(-c2cc(F)cc(N3CCN(c4ccc(NS(=O)(=O)c5ccc(NC(CCN6CCC(C(=O)OCCCP(=O)(O)O)CC6)CSc6ccccc6)c(S(=O)(=O)C(F)(F)F)c5)cc4)CC3)c2)c(-c2ccc(Cl)cc2)n1C(C)C
- IC50 (second compound 0.1 µM): < 3.16 nM
- IC50 (second compound 0.316 µM): < 3.16 nM
- IC50 (second compound 1 µM): < 3.16 nM
- IC50 (second compound 3.16 µM): < 3.16 nM
- IC50 (second compound 10 µM): < 3.16 nM
- viability, T/C (second compound 0.1 µM, first compound 0.00316 µM): 39.6%
- viability, T/C (second compound 0.1 µM, first compound 0.01 µM): 48%
- viability, T/C (second compound 0.1 µM, first compound 0.0316 µM): 33.2%
- viability, T/C (second compound 0.1 µM, first compound 0.1 µM): 15.8%
- viability, T/C (second compound 0.1 µM, first compound 0.316 µM): 6.56%
- viability, T/C (second compound 0.1 µM, first compound 1 µM): 4%
- viability, T/C (second compound 0.316 µM, first compound 0.00316 µM): 32.8%
- viability, T/C (second compound 0.316 µM, first compound 0.01 µM): 28.1%
- viability, T/C (second compound 0.316 µM, first compound 0.0316 µM): 31.9%
- viability, T/C (second compound 0.316 µM, first compound 0.1 µM): 13%
- viability, T/C (second compound 0.316 µM, first compound 0.316 µM): 5.57%
- viability, T/C (second compound 0.316 µM, first compound 1 µM): 2.62%
- viability, T/C (second compound 1 µM, first compound 0.00316 µM): 34.3%
- viability, T/C (second compound 1 µM, first compound 0.01 µM): 31.4%
- viability, T/C (second compound 1 µM, first compound 0.0316 µM): 18.6%
- viability, T/C (second compound 1 µM, first compound 0.1 µM): 17.4%
- viability, T/C (second compound 1 µM, first compound 0.316 µM): 5.22%
- viability, T/C (second compound 1 µM, first compound 1 µM): 2.16%
- viability, T/C (second compound 3.16 µM, first compound 0.00316 µM): 26.5%
- viability, T/C (second compound 3.16 µM, first compound 0.01 µM): 29.1%
- viability, T/C (second compound 3.16 µM, first compound 0.0316 µM): 20.2%
- viability, T/C (second compound 3.16 µM, first compound 0.1 µM): 8.47%
- viability, T/C (second compound 3.16 µM, first compound 0.316 µM): 5.03%
- viability, T/C (second compound 3.16 µM, first compound 1 µM): 1.66%
- viability, T/C (second compound 10 µM, first compound 0.00316 µM): 40.9%
- viability, T/C (second compound 10 µM, first compound 0.01 µM): 25.5%
- viability, T/C (second compound 10 µM, first compound 0.0316 µM): 19.1%
- viability, T/C (second compound 10 µM, first compound 0.1 µM): 12.1%
- viability, T/C (second compound 10 µM, first compound 0.316 µM): 4.21%
- viability, T/C (second compound 10 µM, first compound 1 µM): 1.7%
